Patent US6331610A, “Method for treating AIDS and HIV infection using select peptides from the beta subunit of human chorionic gonadotropin” (priority 1997, dated 2001)
Entries after “also recorded” stand apart in the source; their conditions may differ.

Assays:
[1] = test system: IIIB strain of HIV-1; experiment: Anti-HIV effect: protection of MT-4 T lymphocytes from HIV-caused cell death (XTT assay); format: cell-based; settings: MT-4, HIV-1 IIIB, 100 mcg-1 ng per ml, 5-7 days
Method: Viability=100%×[(ODT)-(ODD)]/[(ODM)-(ODD)]
Where ODT is optical density values of culture wells treated with test peptides; ODM optical density of mock-infected cells; ODD light absorbance values of untreated cells dead from exposure to HIV.
The serial ten-fold dilutions (100 mcg-1 ng per ml) of 6 different synthetic peptides representing N-terminal and core region of hCG were tested for their effect on HIV replication (FIG. 1). […] In these experiments the viability of MT4 was determined after 5-7 days of continuous presence of the virus and hCG peptide fragment in the target cell culture.

[2] = test system: MT-4 cells; settings: 100 ng/ml and concentrations up to 1,000-fold higher
Method: MT-4 T lymphocytes (5×10^4 cells/ml) were seeded in 96well plates and exposed to IIIB strain of HIV-1 (at MOI equal to 100 infectious doses) in the presence of ten-fold, serial dilutions of hCG peptides (range 100 mcg-1 ng per ml). […] The tests were repeated three times with duplicates for each dilution of an individual peptide. All cultures were grown in RPMI-1640/10% FBS medium supplemented witi L-glutamine and penicillin/streptomycin. The culture plates were kept in a humidified incubator with 5% CO2 at 37° C. […] This difference in the survival pattern, indicative of the antiviral activity, was quantitated by tetrazolium salt XTT assay. This assay is based on the rationale that the viability of MT-4 correlates directly with the activity of mitochondrial hydrogenases converting XTT into optically dense formazan dye. […] At the appropriate time 1 mg/ml of XTT (Sigma, St Louis, Mo.) was nixed with 1% w/v phenazine methosulfate (Aldrich, Milwaukee, Wis.) and 20 mcl of the mixture was added to the wells for 4 hours. The optical density of formazan was then determined in a plate reader at 450 nm with reference filter at 620 nm. The proportion of surviving MT-4 cells treated with hCG peptides was calculated as a function of the viability of mock-infected cells in relation to positive control wells containing untreated cells dead from exposure to HIV.

Row | Compound | anti-HIV effect (in words) [1] | toxicity to cells employed in the assay [2]
1 | K20 EGCPVCITVN30 TT (KEGCPVCITVNTT) [peptide #1] | active at nanogram doses | 
2 | CC[C@H](C)[C@H](NC(=O)[C@@H]1CCCN1C(=O)[C@@H](NC(=O)[C@H](CC(=O)O)NC(=O)[C@H](CO)NC(=O)[C@@H]1CCCN1C(=O)CNC(=O)[C@@H]1CCCN1C(=O)[C@H](CC(C)C)NC(=O)[C@H](CCCNC(=N)N)NC(=O)[C@H](CO)NC(=O)[C@@H]1CCCN1C(=O)[C@H](CO)NC(=O)[C@@H]1CCCN1C(=O)[C@H](CC(C)C)NC(=O)[C@H](CO)NC(=O)[C@@H]1CCCN1C(=O)[C@@H]1CCCN1C(=O)[C@@H]1CCCN1C(=O)[C@H](C)NC(=O)[C@H](CCCCN)NC(=O)[C@H](CO)NC(=O)[C@H](CO)NC(=O)[C@H](CO)NC(=O)[C@H](CO)NC(=O)[C@H](CC(=O)O)NC(=O)[C@H](CCC(N)=O)NC(=O)[C@H](Cc1ccccc1)NC(=O)[C@H](CCCNC(=N)N)NC(=O)[C@@H]1CCCN1C(=O)[C@H](CC(=O)O)NC(=O)[C@H](CC(=O)O)NC(=O)[C@H](CS)NC(=O)[C@@H](NC(=O)[C@H](CC(C)C)NC(=O)[C@@H]1CCCN1C(=O)[C@@H](N)Cc1c[nH]cn1)[C@@H](C)O)[C@@H](C)O)C(=O)N[C@@H](CC(C)C)C(=O)N1CCC[C@H]1C(=O)N[C@@H](CCC(N)=O)C(=O)O [CTP of hCG] |  | not toxic
3 | C100 GGPKDHPLTC110 DD (CGGPKDHPLTCDD) [compound 7] | active; also recorded: restricted effect | 
